This note sets out measurements from the NIST ThermoML archive (doi:10.1021/je050462y).

The conditions of data set [1]: 101.33 kPa, Liquid.
The nature of data set [2]: wn = mass fraction of the nth substance listed. The following applies: 101 kPa, Liquid; for mass density: w1 = 0.3; for viscosity: Capillary tube (Ostwald / Ubbelohde) method, w1 = 0.5.

By mass density is commonly meant the mass of a sample divided by its volume. In general, viscosity refers to the resistance of a fluid to flow.

Numbers after ± are expanded uncertainties.

Consider `OCCNCCO` [diethanolamine], for which the mass density in data set [1] (313.15 K) was found to be 1084.7 ± 0.3 kg/m3; in data set [1] (323.15 K) it was 1077.4 ± 0.3 kg/m3; in data set [1] (333.15 K), 1070.3 ± 0.3 kg/m3.

Turning to `CC(C)(N)CO` [2-amino-2-methylpropan-1-ol], the values for the mass density in data set [1] (313.15 K), in data set [1] (323.15 K) and in data set [1] (333.15 K) were 917.2 ± 0.6 kg/m3, 909.2 ± 0.6 kg/m3 and 900.7 ± 0.6 kg/m3, respectively.

In the case of `OCCNCCO` [diethanolamine] + O, the mass density in data set [2] (313.15 K) came to 1026 ± 0.5 kg/m3; in data set [2] (323.15 K), 1021.3 ± 0.5 kg/m3; in data set [2] (333.15 K), 1014.4 ± 0.4 kg/m3.

With `CN(CCO)CCO` [N-methyldiethanolamine] + O, the viscosity in data set [2] (303.15 K) is given as 7.39 ± 0.07 mPa·s; in data set [2] (313.15 K), 5.08 ± 0.05 mPa·s; in data set [2] (323.15 K) it was 3.62 ± 0.03 mPa·s; in data set [2] (333.15 K) it was 2.72 ± 0.03 mPa·s. Also, the mass density in data set [2] (313.15 K) was found to be 1017.1 ± 0.6 kg/m3; in data set [2] (323.15 K) it was 1011.5 ± 0.6 kg/m3; in data set [2] (333.15 K) it was 1004.1 ± 0.6 kg/m3.

With `CN(CCO)CCO` [N-methyldiethanolamine], the values for the mass density in data set [1] (313.15 K), in data set [1] (323.15 K) and in data set [1] (333.15 K) were 1025 ± 0.6 kg/m3, 1017.4 ± 0.6 kg/m3 and 1009.6 ± 0.6 kg/m3, respectively.
